≈ marks a conversion by molar mass, not a printed value. Like-named read-outs stand apart in the source and are kept apart here. Bounds are passed on as bounds.

This note sets out measurements from patent US8288374B2, “Medicinal composition containing benzo[a]phenoxazine compound as the active ingredient for prevention or treatment of protozoal disease” (Hoshi University, priority 2008, dated 2012).

Series [1] relates to Trypanosoma cruzi (Tulahuen C2C4 strain). In words: American trypanosome protozoa growth inhibition screening test. The class given is cell-based. The following applies: Trypanosoma cruzi, Table 5, in rat L6 cells, 96 hours, CPRG/Nonidet, read-out: 50% Growth inhibition concentration Trypanosoma cruzi. The method, then: In the present experiment, amastigote and trypomastigote infected with rat L6 cells of protozoa of Trypanosoma cruzi (Tulahuen C2C4 starin) were used. As medium used in the test, RPMI 1640 medium containing L6 cells was supplemented so that L-glutamine (200 mM) become 1%, fetal bovine serum becomes 10%, which was cultured under CO2 concentration 5%, at 37° C.
The compounds of the present invention to be used in the present test and the positive control drug (benznidazole) were dissolved in DMSO to make a test solution of a predetermined concentration.
A medium containing 5×10^3 protozoa was added to wells of a 96-well culture plate, and pre-cultured for 48 hours. After replacing the medium, test solution containing drug of a predetermined concentration or a drug-free DMSO was added. Test solutions were taken by duplicates.
After culturing the culture plate in an incubator for 96 hours, growth inhibition activity was tested. Test was conducted as follows. 50 μL of CPRG/Nonidet was added to each well, and allowed to rest for 2 to 6 hours. Next, the culture plate was placed on a fluorescent micro-plate reader. The absorbance was measured at 540 nm, and the trypanosome infection rate of the test solution added group and control group were calculated.
(§1) Growth inhibition rate (%)={1−(b−a)/(c−a)}×100 • a: early infection rate • b: infection rate when test solution was added • c: infection rate of the control

The subject of series [2] is Leishmania donovani (MHOM/ET/67/L82 strain). In words: Leishmania protozoa growth inhibition screening test. Type of series: cell-based. Particulars: Leishmania donovani; Table 5; amastigotes, 72 hours, Alamar Blue; read-out: 50% Growth inhibition concentration Leishmania donovani. The method, then: In the present experiment, Leishmania donovani (MHOM/ET/67/L82 strain) was used. Protozoa was subcultured in Syrian Golden hamster, from which an amastigote was obtained. In the experiment, SM medium supplemented with 10% heat-treated bovine fetal serum was used, which was adjusted to pH 5.4, and cultured in an atmosphere of 5% CO2 concentration, at 37° C.
The compounds of the present invention to be used in the present test and the positive control drug (miltefosine) were dissolved in DMSO to make a test solution of a predetermined concentration.
After adding a medium containing a predetermined number of protozoa to wells of a 96-well culture'plate and pre-treating, concentration of the amastigote was measured with CASY cell analysis system (Scharfe, Germany). Then, test solution containing a drug of a predetermined concentration or a drug-free DMSO was added. Test solutions were taken by duplicates.
After culturing the culture plate for 72 hours in an incubator, growth inhibition activity was tested. Test was conducted as follows. 10 μL of Alamar Blue aqueous solution was added to each well, and the resultant was further cultured for 2 hours. Next, the culture plate was placed on a fluorescent micro-plate reader (Spectramax Gemeni XS; US Molecular Device), radiated at an excited wavelength of 536 nm. Fluorescent intensity was measured at 588 nm, and infection rate of leishmania protozoa of the test solution added group and control was calculated.
as §1

Series [3] deals with Plasmodium falciparum K1. As to the kind of experiment: Chloroquine resistant-Plasmodium falciparum growth inhibition screening test. The class given is cell-based. The following applies: for Selective toxicity: EC50 against rat L6 cells / EC50 against P. falciparum K1. The method, then:
In the present experiment, protozoa of plasmodium falsiparum K1 strain was used. RPMI-1640 medium sterilized with a filter to which human serum was added to be 5%, was used in the experiment. Malarial parasites were cultured under 3% O2 concentration, 4% CO2 concentration, 93% N2 concentration, and at a temperature of 37° C.
The compounds of the present invention to be used in the present test and the positive control drug (chloroquine) were dissolved in DMSO to make a test solution of a predetermined concentration. Cultured malaria parasite infected-erythrocytes were collected by centrifugation, and diluted with non-infected erythrocyte so that the early infection rate was 0.15%. Hematocrit level at that time was 2.5%.
200 μL of malaria infected solution was added to wells of a 96-well culture plate, and adjusted by adding a test solution containing drug of a predetermined concentration or a drug-free DMSO. Test solutions were taken by duplicates.
[…] […] Radiation intensity was measured with a beta plate liquid scintillation counter (Wallac), and malarial parasite infection rates of the test solution added group and the control group were calculated.
Growth inhibition rate (%)={1−(b−a)/(c−a)}×100 • a: early infection rate • b: infection rate when test solution was added • c: infection rate of the control 3. Growth Inhibition Test of Rat L6 Cells
Antimalarial activity of a sample was estimated from EC50 values of the sample against chloroquine resistant-Plasmodium falciparum and rat L6 cells. […] It means that the larger the value of the selection toxity, the less the risk of the side effect is. Chemotherapy index=(EC50 value of a sample against rat L6 cells)/(EC50 value of a sample against chloroquine resistant-Plasmodium falsiparum)

Series [4] deals with Rat L6 cells. As to the kind of experiment: Growth inhibition test of rat L6 cells. The class given is cell-based. The method, then:
Rat derived-L6 cells (rat skeletal myoblast cell) were used. A medium, RPMI1640 medium was supplemented so that L-glutamin (200 mM) is 1%, and fetal bovine serum 10%, and the medium was cultured under CO2 concentration 5%, at 37° C.
The compounds of the present invention and the control drugs to be used in the test were dissolved in DMSO, to make a test solution of a predetermined concentration.
Pre-culture was conducted and medium containing cells which have entered the logarithmic growth phase was taken to wells of a 96-well culture plate. Then, a test solution containing drug of a predetermined concentration or a drug-free DMSO was added. Test solutions were taken by duplicates.
Culture plate was cultured for 72 hours in an incubator, to test the growth inhibition activity. Test was conducted as follows. 10 μL of Alamar Blue aqueous solution was added to each well, and the resultant was further cultured for 2 hours. Next, the culture plate was placed on a fluorescent micro-plate reader (Spectramax Gemeni XS; US Molecular Device), radiated at an excited wavelength of 536 nm. Fluorescent intensity was measured at 588 nm, and residual rate of L6 cells of the test solution added group, and that of the control was calculated.
Growth inhibition rate (%)={(C−A)/(B−A)}×100 • A: Primary cell count • B: cell count of control, 3 days after • C: cell count of wells added with a sample, 3 days after 4. Determination of Drug Efficacy Against Chloroquine Resistant-Plasmodium

The test system of series [5] is Trypanosoma brucei rhodesiense (STIB 900 strain). In words: African trypanosome protozoa growth inhibition screening test. Type of series: cell-based. Particulars: read-out: 50% Growth inhibition concentration Trypanosoma brucei rhod. The method, then: In the present experiment, protozoa of Tripanosoma brucei rhodensiense (STIB 900 Strain), a trypomastigote living in blood stream, was used. The medium used in the experiment was a MEM medium which was sterilized with a filter and supplemented with 25 mM N-2-hydroxyeihylpiperazine-2-ethansulfonic acid (HEPES), 1 g/L glucose, 1% MEM non-essential amino acid, 0.2 mM 2-mercaptoethanol, 2 mM sodium pyruvate, 0.1 mM hypoxanthine, and 15% heat-treated horse serum. The protozoa was cultured in an atmosphere of CO2 concentration 5%, at a temperature of 37° C.
The compounds of the present invention to be used in the present test and the positive control drug (melarsoprol) were dissolved in dimethylsulfoxide (DMSO) to make a test solution of a predetermined concentration.
A medium containing 8×10^3 protozoa, and a test solution containing a drug of a predetermined concentration of a drug-free DMSO were added to wells of a 96-well culture plate, and subsequently, medium was added so that the amount in each well becomes 100 μL. Test solutions were taken by duplicates.
After culturing the culture plate for 72 hours in an incubator, growth inhibition activity was tested. Test was conducted as follows. 10 μL of Alamar Blue aqueous solution was added to each well, and the resultant was further cultured for 2 hours. Next, the culture plate was placed on a fluorescent micro-plate reader (Spectramax Gemeni XS; US Molecular Device), radiated at an excited wavelength of 536 nm. Fluorescent intensity was measured at 588 nm, to calculate the trypanosome protozoa infected rate of the test solution added-group, and of the control group.
as §1

Setting [6] is: Table 1, 72 hours, Alamar Blue, read-out: 50% Growth inhibition concentration Cytoxicity L6.

`CCN(CC)c1ccc2nc3c4ccc(Br)cc4c(=Nc4ccncc4)cc-3oc2c1` [Compound 1G, 3-Bromo-N,N-diethyl-5-(pyridin-4-ylimino)-5H-benzo[a]phenoxazin-9-amine]: the melting point fell in the range of 269 to 271 °C. Moreover, the EC50 in series [1] is over 30 µg/mL. For the same molecule, the EC50 in series [2] turned out to be 19.1 µg/mL (≈ 40.4 µM). This molecule also yielded a Selective toxicity in series [3] of over 18000. Moreover, in series [4] (setting [6]), the EC50 was over 90 µg/mL. For the same molecule, the EC50 in series [5] (Table 5, 72 hours, Alamar Blue) came to 61 µg/mL (≈ 129 µM).
Consider `CCN(CC)c1ccc2nc3c4ccccc4c(=Nc4ncc(Cl)cc4Cl)cc-3oc2c1` [Compound 1K, 5-(3,5-Dichloropyridin-2-ylimino)-N,N-diethyl-5H-benzo[a]phenoxazin-9-amine], for which the melting point fell in the range of 192 to 193 °C. Besides, the EC50 in series [1] is over 30 µg/mL. The EC50 in series [2] came out at 8.13 µg/mL (≈ 17.5 µM). Also, the Selective toxicity in series [3] was determined as 2866. In series [4] (setting [6]), the EC50 amounted to 83.1 µg/mL (≈ 179 µM). Moreover, the EC50 in series [5] (Table 5, 72 hours, Alamar Blue) was 38.6 µg/mL (≈ 83.3 µM).
As to `O=C(Cn1ccnc1[N+](=O)[O-])NCc1ccccc1` [Benznidazole, benznidazole, reference compound], the EC50 in series [1] is 0.225 µg/mL (≈ 0.866 µM).
On to `CCN(CC)c1ccc2nc3c4ccccc4c(=Nc4cc(C)nc5ccccc45)cc-3oc2c1` [Compound 1P, N,N-Diethyl-5-(2-methylquinoline-4-ylimino)-5H-benzo[a]phenoxazin-9-amine], for which the melting point lay in the range of 229 to 230 °C. In addition, the Selective toxicity in series [3] is reported as 183. The EC50 in series [3] (Plasmodium falciparum, Table 2, unit inferred, chloroquine-resistant K1 strain, read-out: P. falciparum K1) came to 0.036 µg/mL (≈ 0.0785 µM). The EC50 in series [4] (Table 2, unit inferred, 72 hours, read-out: Cytoxicity L6) came to 6.6 µg/mL (≈ 14.4 µM).
On to `CCN(CC)c1ccc2nc3c4ccccc4c(=Nc4cc(C)on4)cc-3oc2c1` [Compound 1J, N,N-Diethyl-5-(5-methylisoxazol-3-ylimino)-5H-benzo[a]phenoxazin-9-amine], for which the melting point was in the range of 195 to 196 °C. In series [1], the EC50 was 21.8 µg/mL (≈ 54.8 µM). Also, the EC50 in series [2] came out at 1.86 µg/mL (≈ 4.67 µM). In series [3], this molecule registered a Selective toxicity of 7360. Besides, the EC50 in series [4] (setting [6]) was 36.8 µg/mL (≈ 92.4 µM). In series [5] (Table 5, 72 hours, Alamar Blue), the EC50 turned out to be 11.8 µg/mL (≈ 29.6 µM).
As for `CCN(CC)c1ccc2nc3c4ccccc4c(=Nc4nc5ccc(OC)cc5s4)cc-3oc2c1` [Compound 1M, N,N-Diethyl-5-(6-methoxybenzo[d]thiazol-2-ylimino)-5H-benzo[a]phenoxazin-9-amine], the melting point is 197 to 198 °C. The EC50 in series [1] is over 30 µg/mL. Moreover, the EC50 in series [2] came to 13.8 µg/mL (≈ 28.7 µM). The Selective toxicity in series [3] was found to be 1492. For the same molecule, the EC50 in series [4] (setting [6]) was determined as 80.6 µg/mL (≈ 168 µM). Moreover, the EC50 in series [5] (Table 5, 72 hours, Alamar Blue) was 40 µg/mL (≈ 83.2 µM).
Regarding `CCN(CC)c1ccc2nc3c4ccccc4c(=Nc4nc5ccc(Cl)cc5s4)cc-3oc2c1` [Compound 1I, 5-(6-Chlorobenzo[d]thiazol-2-ylimino)-N,N-diethyl-5H-benzo[a]phenoxazin-9-amine], the melting point is 229 to 231 °C. Besides, the EC50 in series [1] is over 30 µg/mL. Further, the EC50 in series [2] came to 19.6 µg/mL (≈ 40.5 µM). For the same molecule, the Selective toxicity in series [3] is over 210. Besides, the EC50 in series [4] (setting [6]) was over 90 µg/mL. Moreover, the EC50 in series [5] (Table 5, 72 hours, Alamar Blue) came out at 44.8 µg/mL (≈ 92.4 µM).
In turn, `CCN(CC)c1ccc2nc3c4ccccc4c(=Nc4ncccn4)cc-3oc2c1` [Compound 1L, N,N-Diethyl-5-(pyrimidin-2-ylimino)-5H-benzo[a]phenoxazin-9-amine] came in with a melting point of 208 to 210 °C. The EC50 in series [1] turned out to be 1.78 µg/mL (≈ 4.5 µM). For the same molecule, the EC50 in series [2] was 0.662 µg/mL (≈ 1.67 µM). Further, the Selective toxicity in series [3] was determined as 2700. For the same molecule, the EC50 in series [4] (setting [6]) is 5.4 µg/mL (≈ 13.7 µM). Moreover, in series [5] (Table 5, 72 hours, Alamar Blue), the EC50 was determined as 0.804 µg/mL (≈ 2.03 µM).
Regarding `Nc1nc(N)nc(Nc2ccc([As]3SCC(CO)S3)cc2)n1` (stereo not shown) [Melarsoprol, melarsoprol, reference compound], the EC50 in series [5] (72 h) amounted to 0.0024 µg/mL.
For the molecule `CCCCCCCCCCCCCCCCOP(=O)([O-])OCC[N+](C)(C)C` [Milfotesine, miltefosine, reference compound], in series [2], the EC50 was 0.114 µg/mL (≈ 0.278 µM).

As a reminder, the melting point is the temperature, or range, at which the solid turns liquid.
